From publication PMC1851987, “Identification of the Endogenous Key Substrates of the Human Organic Cation Transporter OCT2 and Their Implication in Function of Dopaminergic Neurons” (PLoS ONE, 2007)

Tests used:
[1] = test system: HEK-293 cells expressing EMT; experiment: MTT reduction cell viability assay, EMT-transfected HEK-293 cells; format: cell-based; settings: Homo sapiens, HEK293; 48 h exposure; read-out: EC50 (95% confidence interval), cell viability
OCT2 (wild-type 400R) = biological target: T1, OCT2 (wild-type 400R) (Homo sapiens, UniProt O15244, S270A); experiment: Specific uptake into OCT2 (wild-type) transfected HEK-293 cells vs empty vector, LC-MS-MS; settings: human, pH 7.4
T1 sequence (O15244 1-555 S270A): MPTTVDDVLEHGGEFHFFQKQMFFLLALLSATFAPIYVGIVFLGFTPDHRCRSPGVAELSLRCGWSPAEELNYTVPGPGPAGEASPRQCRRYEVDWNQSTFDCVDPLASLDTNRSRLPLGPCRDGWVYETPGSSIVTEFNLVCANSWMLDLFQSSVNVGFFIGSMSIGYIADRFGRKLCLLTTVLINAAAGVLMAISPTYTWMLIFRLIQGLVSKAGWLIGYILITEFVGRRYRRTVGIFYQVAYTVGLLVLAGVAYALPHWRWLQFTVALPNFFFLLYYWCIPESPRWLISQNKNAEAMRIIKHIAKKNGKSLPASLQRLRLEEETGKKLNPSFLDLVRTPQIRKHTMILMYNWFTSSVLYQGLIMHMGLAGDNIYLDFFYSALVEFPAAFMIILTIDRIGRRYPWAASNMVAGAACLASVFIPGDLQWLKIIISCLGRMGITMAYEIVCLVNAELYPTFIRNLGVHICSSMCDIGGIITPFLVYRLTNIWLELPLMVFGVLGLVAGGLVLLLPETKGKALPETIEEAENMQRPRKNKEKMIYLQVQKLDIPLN

[2] = weak bases; cited from earlier work

SMILES | EC50 [1] [µM] | Km at 1 min (OCT2 (wild-type 400R)) [µM] | pKS [2]
CC1NCCc2cc(O)c(O)cc21 (stereo not drawn) [salsolinol] | 998 | 130 | –
O=C1NC(Cc2c[nH]cn2)C(=O)N2CCCC12 (stereo not drawn) [cyclo(his-pro), histidyl-proline diketopiperazine] | – | – | 6.5–7.5
